Marks after values point to notes of the source that are not given here.
Experiments:
Format in all cases: in vivo
[1] = test system: Erysiphe graminis f. sp. tritici; experiment: Test A: wheat powdery mildew, preventive spray on wheat seedlings
Summary of the method: (§1)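 Compounds were dissolved in acetone (3% of final volume), then suspended in 50/50 acetone/purified water with 250 ppm Trem 014 surfactant. Plants were sprayed to run-off at 200 ppm (equivalent to 500 g/ha) or 40 ppm.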

[2] = test system: Puccinia recondita f. sp. tritici; experiment: Test B: wheat leaf rust, preventive spray on wheat seedlings; conditions: 200 ppm, 100 = 100% disease control, 0 = no control relative to controls; for pest or weed control at 200 ppm: Puccinia recondita, 192 h, read-out: Test B disease control rating
Summary of the method: as §1

Septoria nodorum = experiment: Test C: wheat glume blotch, preventive spray on wheat seedlings; conditions: 200 ppm, 100 = 100% disease control, 0 = no control relative to controls; for pest or weed control at 200 ppm: Parastagonospora nodorum, 216 h, read-out: Test C disease control rating
Summary of the method: as §1

Septoria tritici = experiment: Test D: wheat leaf blotch, preventive spray on wheat seedlings; conditions: 200 ppm, 100 = 100% disease control, 0 = no control relative to controls; for pest or weed control at 200 ppm: Zymoseptoria tritici, 504 h, read-out: Test D disease control rating
Summary of the method: as §1

Fusarium graminearum = experiment: whole plant or invertebrate; conditions: for pest or weed control at 200 ppm: Fusarium graminearum, in Triticum aestivum, 192 h, read-out: Test E disease control rating; for Test E disease control rating: 200 ppm, 100 = 100% disease control, 0 = no control relative to controls
Botrytis cinerea = experiment: Test F: tomato Botrytis, preventive spray on tomato seedlings
Summary of the method: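 Preventive run-off spray onto tomato seedlings at 200 ppm (equivalent to 500 g/ha) or 40 ppm. Suspensions: compound predissolved in acetone at 3% of final volume, then taken up in acetone/purified water 50/50 containing 250 ppm Trem® 014 surfactant.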

Alternaria solani = experiment: Test H: tomato early blight, preventive spray on seedlings
Summary of the method: as §1

[3] = test system: Colletotrichum orbiculare; experiment: Test I: cucumber Colletotrichum anthracnose, preventive spray on cucumber seedlings; conditions: 100 = 100% disease control, 0 = no control relative to controls; for pest or weed control at 200 ppm: Colletotrichum orbiculare, 144 h, read-out: Test I disease control rating; for Test I disease control rating: 200 ppm
Summary of the method: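 Preventive foliar spray to run-off on cucumber seedlings, at 200 ppm (stated as equal to 500 g/ha) or 40 ppm. Test suspensions were made in acetone/water 50/50 containing 250 ppm Trem 014, after first dissolving compound in acetone at 3% of final volume.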

Uncinula necator = experiment: Test N: grape powdery mildew, preventive spray on grape seedlings; conditions: 100 ppm (100 g/ha, 1000 L/ha), inoculated the following day, 100 = 100% disease control, 0 = no control relative to controls
From the text: (§2) General protocol for preparing test suspensions for Tests A-R: The test compounds were first dissolved in acetone in an amount equal to 3% of the final volume and then suspended at the desired concentration (in ppm) in acetone and purified water (50/50 mix) containing 250 ppm of the surfactant Trem® 014 (polyhydric alcohol esters). The resulting test suspensions were then used in tests A-R. In Tests A-M, compounds were sprayed as a 200 ppm test suspension (equivalent to a rate of 500 g/ha) or as a 40 ppm test suspension to the point of runoff on the test plants. In Tests N-R, compounds were sprayed as a 100 g/ha test suspension (equivalent to a rate of 100 ppm) on the test plants at an application volume of 1000 L/ha. The test suspension was sprayed on grape seedlings.

Venturia inaequalis = experiment: Test O: apple scab, preventive spray on apple seedlings; conditions: 100 ppm (100 g/ha, 1000 L/ha), inoculated the following day, 100 = 100% disease control, 0 = no control relative to controls
From the text: as §2, with “apple” for “grape”

Rhizoctonia oryzae = experiment: Test P: rice sheath blight, preventive spray on rice seedlings; conditions: 100 ppm (100 g/ha, 1000 L/ha), inoculated the following day, 100 = 100% disease control, 0 = no control relative to controls
From the text: as §2, with “rice” for “grape”

Magnaporthe grisea = conditions: 100 ppm (100 g/ha, 1000 L/ha), rice seedlings, inoculated the following day; 100 = 100% disease control, 0 = no control relative to controls
Plasmopara viticola = experiment: Test R: grape downy mildew, preventive spray on grape seedlings; conditions: 100 ppm (100 g/ha, 1000 L/ha), inoculated the following day, 100 = 100% disease control, 0 = no control relative to controls
From the text: as §2, with “seedlings. The following day the seedlings were inoculated with a spore suspension of Plasmopara viticola (the causal agent of grape downy mildew) and incubated in a saturated atmosphere at 20° C. for 24 h, then moved to a growth chamber at 20° C. for 7 days, after which time the test units were placed back into a saturated atmosphere at 20° C. for 24 h. Upon removal, disease ratings were made.” for “seedlings.”

[4] = 200 ppm, 100 = 100% disease control, 0 = no control relative to controls

COC[C@H](C)Nc1nccc(-c2ncnc(Nc3cc(F)cc(F)c3)n2)n1 [Compound 22, N-(3,5-difluorophenyl)-4-[2-[[(1S)-2-methoxy-1-methylethyl]amino]-4-pyrimidinyl]-1,3,5-triazin-2-amine]
pest or weed control at 40 ppm ([1]; Blumeria graminis, 192 h, 40 ppm (marked *), read-out: Test A disease control rating): 69%
pest or weed control at 200 ppm [2]: 99%
pest or weed control at 200 ppm (Septoria nodorum): 100%
pest or weed control at 200 ppm (Septoria tritici): 36%
pest or weed control at 200 ppm (Fusarium graminearum): 99%
pest or weed control at 40 ppm (Botrytis cinerea; Botrytis cinerea, 120 h, 40 ppm (marked *), read-out: Test F disease control rating): 99%
pest or weed control at 40 ppm (Alternaria solani; Alternaria solani, 168 h, 40 ppm (marked *), read-out: Test H disease control rating): 100%
pest or weed control at 200 ppm [3]: 100%
Test N disease control rating (Uncinula necator): 99%
Test O disease control rating (Venturia inaequalis): 99%
Test P disease control rating (Rhizoctonia oryzae): 100%
Test Q disease control rating (Magnaporthe grisea): 100%
Test R disease control rating (Plasmopara viticola): 83%

COC[C@H](C)Nc1nccc(-c2ncnc(Nc3cccc(C#N)c3)n2)n1 [Compound 18]
Test B disease control rating [2]: 100%
Test C disease control rating (Septoria nodorum): 100%
Test D disease control rating (Septoria tritici): 0%
Test E disease control rating (Fusarium graminearum): 85%
Test F disease control rating (Botrytis cinerea; [4]): 95%
Test H disease control rating (Alternaria solani; 40 ppm (marked *)): 89* %
Test I disease control rating [3]: 99%
Test N disease control rating (Uncinula necator): 99%
Test O disease control rating (Venturia inaequalis): 83%
Test P disease control rating (Rhizoctonia oryzae): 100%
Test Q disease control rating (Magnaporthe grisea): 100%
Test R disease control rating (Plasmopara viticola): 86%

COC[C@H](C)Nc1nccc(-c2ccnc(Nc3cccc(F)c3)c2)n1 [Compound 56]
Test A disease control rating [1, 4]: 84%
Test B disease control rating [2]: 99%
Test C disease control rating (Septoria nodorum): 99%
Test D disease control rating (Septoria tritici): 82%
Test E disease control rating (Fusarium graminearum): 90%
Test F disease control rating (Botrytis cinerea; [4]): 99%
Test I disease control rating [3]: 90%
Test N disease control rating (Uncinula necator): 64%
Test O disease control rating (Venturia inaequalis): 75%
Test P disease control rating (Rhizoctonia oryzae): 100%
Test Q disease control rating (Magnaporthe grisea): 98%
Test R disease control rating (Plasmopara viticola): 97%

COCC(C)Nc1nccc(-c2ncnc(Nc3cccc(F)c3)n2)n1 (centres unmarked) [Compound 2, N-(3-fluorophenyl)-4-[2-[(2-methoxy-1-methylethyl)amino]-4-pyrimidinyl]-1,3,5-triazin-2-amine]
pest or weed control at 200 ppm ([1]; Blumeria graminis, 192 h, 200 ppm, 100 = 100% disease control, 0 = no control relative to controls, read-out: Test A disease control rating): 94%
pest or weed control at 200 ppm [2]: 99%
pest or weed control at 200 ppm (Septoria nodorum): 99%
pest or weed control at 200 ppm (Septoria tritici): 71%
pest or weed control at 200 ppm (Fusarium graminearum): 95%
pest or weed control at 200 ppm (Botrytis cinerea; Botrytis cinerea, 120 h, 200 ppm, 100 = 100% disease control, 0 = no control relative to controls, read-out: Test F disease control rating): 93%
pest or weed control at 200 ppm (Alternaria solani; Alternaria solani, 168 h, 200 ppm, 100 = 100% disease control, 0 = no control relative to controls, read-out: Test H disease control rating): 97%
pest or weed control at 200 ppm [3]: 99%
Test N disease control rating (Uncinula necator): 89%
Test O disease control rating (Venturia inaequalis): 95%
Test P disease control rating (Rhizoctonia oryzae): 100%
Test Q disease control rating (Magnaporthe grisea): 93%
Test R disease control rating (Plasmopara viticola): 60%
